Experimental data: PMC5520047, “Prioritizing multiple therapeutic targets in parallel using automated DNA-encoded library screening” (Nature Communications, 2017)
In brackets after ≈: the same amount, converted by molar mass. Read-outs that look alike come from different tables or passages of the source.

What was measured:
[1] = target: M. tuberculosis Dihydrofolate reductase (DHFR) (Mycobacterium tuberculosis, UniProt P9WNX1); experiment: biochemical; settings: M. tuberculosis DHFR; average of two replicates with s.d.; read-out: IC50
Chain of M. tuberculosis Dihydrofolate reductase (DHFR) (P9WNX1 whole entry): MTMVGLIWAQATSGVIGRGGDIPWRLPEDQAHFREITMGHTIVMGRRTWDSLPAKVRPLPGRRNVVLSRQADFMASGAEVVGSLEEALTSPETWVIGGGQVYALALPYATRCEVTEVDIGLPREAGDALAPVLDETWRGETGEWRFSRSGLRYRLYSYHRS

M. tuberculosis H37Rv = experiment: MIC determination against M. tuberculosis H37Rv (resazurin); type: cell-based; settings: Mycobacterium tuberculosis
Protocol: (§1) 409 remaining NADPH to convert resazurin into the fluorescent resorufin14. The assay buffer containing
(§2) 410 81.4 mM Hepes pH 7.8, 300 mM KCl, 0.4 mg/mL BSA was used to make the enzyme addition containing
(§3) 411 1.2 μg/mL Mtb DHFR and 50 μM NADPH. This was added in equal volume (5 μL) to a substrate solution
(§4) 412 composed of 240 µM DHF in H2O and incubated for 50 min. Developing solution was prepared with
(§5) 413 0.045 mM Resazurin and 0.6 U/ml Diaphorase in 200 mM sodium phosphate buffer pH 7.8 and 5 μL was
(§6) 414 added. The experiments were conducted in black 384-well plates (Greiner Catalog # 784076) and all
(§7) 415 liquid additions were conducted using a Multidrop combi (Thermo Scientific). The plate was read on a
(§8) 416 ViewLux following a 10 minute delay. Resorufin light production was measured using appropriate
(§9) 417 Viewlux filters: Ex: 525 / 20 Pol (BODIPY TMR FP) Em: 598 / 25 (BODIPY TMR) (B04). Assay plates were
(§10) 418 pre-dispensed with 100 nL DMSO or with 100 nL compounds dissolved in neat DMSO using an Echo®
(§11) 419 liquid handler (Labcyte Inc.) where all wells contained compound samples, except wells in columns 6
420 and 18 that contained DMSO control. Column 6 represented 100% Mtb DHFR activity in the absence of
421 GSK compounds. […] Compounds were
422 tested at 1% DMSO in 11 point dose response with a 1:3 dilution and fit to a standard 4 parameter fit to
423 calculate an IC50 value and are reported as the average of two replicates. Standard deviation values
424 were calculated using the n-1 method.
428 Minimum Inhibitory Concentration Assays:
429 MIC determination against M. tuberculosis H37Rv:
430 The measurement of the Minimum Inhibitory Concentration (MIC) against M. tuberculosis H37Rv for
431 each tested compound was performed in 96-well flat-bottom, polystyrene microtiter plates in a final
432 volume of 100 μl. Ten two-fold drug dilutions in neat DMSO starting at 50 mM were performed. Drug […]
(§12) 440 saline). […] Fluorescence was measured (Spectramax M5 […]
(§13) 444 Minimum inhibitory concentrations (MICs) of compounds were determined using broth microdilution […]

[2] = tested on: E. coli TOP10 ∆TolC, pHN678’ and pHN678’-LolA antisense; experiment: MoA study: MIC in lolA antisense expressor; type: cell-based, Escherichia coli; settings: for MIC: Escherichia coli
[3] = tested on: Acinetobacter baumannii ATCC 19606-1 ΔLpxC; experiment: MIC broth microdilution; type: cell-based; settings: ATCC19606
[4] = tested on: A. baumannii BM4652 strains; experiment: Potentiation of teicoplanin MIC by LpxA compound 4; type: cell-based, Acinetobacter baumannii
[5] = tested on: A. baumannii BM4652, BM4652/pRK415, BM4652/pRK415-LpxA; experiment: MoA study: MIC and MGIC in LpxA overexpressor; type: cell-based; settings: Acinetobacter baumannii
[6] = tested on: Staphylococcus aureus RN4220; experiment: MIC broth microdilution; type: cell-based; settings: S. aureus RN4220 Gram-positive
Protocol: as §1, §2, §3, §4, §5, §6, §7, §8, §9, §10, §11
420 and 18 that contained DMSO control. Column 6 represented 100% Mtb DHFR activity in the absence of […]
424 were calculated using the n-1 method. […]
as §12, §13

[7] = tested on: Klebsiella pneumoniae 1161486a ΔtolC; experiment: MIC broth microdilution; type: cell-based
[8] = tested on: Acinetobacter baumannii BM4652 ΔadeABC ΔadeIJK (efflux mutant); experiment: MIC broth microdilution; type: cell-based
[9] = tested on: Pseudomonas aeruginosa PA0322 Δ(mexAB-oprM) Δ(mexCD-oprJ) Δ(mexEF-oprN); experiment: MIC broth microdilution; type: cell-based
[10] = tested on: Escherichia coli 7623 ΔtolC; experiment: MIC broth microdilution; type: cell-based
[11] = tested on: A. baumannii BM4652 efflux mutant, pRK415 and pRK415-UppS; experiment: microbe, parasite or virus in culture; type: cell-based, Acinetobacter baumannii; settings: 30 μg/ml polymyxin B nonapeptide; for MIC: Acinetobacter baumannii; for Fold MIC increase: pRK415-UppS overexpressing strain relative to parent strain
[12] = target: S. aureus isoleucyl-tRNA synthetase (IRS) (Staphylococcus aureus, UniProt P41972); experiment: t-RNA synthetase biochemical assay (IRS); settings: average of two replicates with s.d.
Chain of S. aureus isoleucyl-tRNA synthetase (IRS) (P41972 whole entry): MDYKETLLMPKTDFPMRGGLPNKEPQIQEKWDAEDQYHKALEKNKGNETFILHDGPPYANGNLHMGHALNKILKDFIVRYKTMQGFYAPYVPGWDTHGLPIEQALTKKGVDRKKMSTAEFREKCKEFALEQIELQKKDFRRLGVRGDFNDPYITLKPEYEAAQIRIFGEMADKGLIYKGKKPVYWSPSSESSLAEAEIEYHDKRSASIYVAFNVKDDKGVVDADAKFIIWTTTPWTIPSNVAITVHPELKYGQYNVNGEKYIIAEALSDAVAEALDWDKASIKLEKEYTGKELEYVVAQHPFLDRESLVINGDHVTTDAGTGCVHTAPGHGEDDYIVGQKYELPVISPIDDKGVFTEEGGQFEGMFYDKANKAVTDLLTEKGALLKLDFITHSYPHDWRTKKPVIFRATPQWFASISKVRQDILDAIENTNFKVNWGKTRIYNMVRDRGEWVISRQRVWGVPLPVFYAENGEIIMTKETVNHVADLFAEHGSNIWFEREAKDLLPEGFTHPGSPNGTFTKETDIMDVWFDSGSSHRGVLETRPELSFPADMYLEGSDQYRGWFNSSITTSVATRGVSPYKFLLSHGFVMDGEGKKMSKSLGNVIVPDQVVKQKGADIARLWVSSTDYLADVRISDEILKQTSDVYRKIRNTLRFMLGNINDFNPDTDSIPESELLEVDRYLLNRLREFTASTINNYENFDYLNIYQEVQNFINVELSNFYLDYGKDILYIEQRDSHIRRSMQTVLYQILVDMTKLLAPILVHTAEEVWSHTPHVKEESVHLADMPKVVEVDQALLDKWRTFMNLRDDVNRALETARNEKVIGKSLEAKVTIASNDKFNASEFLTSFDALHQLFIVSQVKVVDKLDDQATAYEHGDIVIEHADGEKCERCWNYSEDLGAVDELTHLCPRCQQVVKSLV

[13] = tested on: S. aureus WCUH29 wild type; experiment: MIC broth microdilution; type: cell-based, Staphylococcus aureus; settings: Staphylococcus aureus, WCUH29WILDTYPE; S. aureus WCUH29 wild type; read-out: MIC
[14] = E. coli TOP10 ∆TolC + pHN678’-LolA antisense

## Cc1cccc(NC(=O)Cc2c(C(=O)O)[nH]c3ccccc23)n1 [Compound 9]
[1]
  IC50: 4900 ± 2200 nM
M. tuberculosis H37Rv
  MIC: 80 µM (≈ 24.7 µg/mL)

## C[C@@H](O)[C@H]1C(=O)N2C(C(=O)O)=C(SCCN=CN)C[C@H]12 [Imipenem]
[2]; E. coli TOP10 ∆TolC + pHN678’
  MIC: 1 µg/mL
[2]; [14]
  MIC: 1 µg/mL

## Cc1cc(C)c(NC(=O)NC(CCC(=O)N2CCN(C)CC2)C(=O)Nc2cccc3c2CCCC3)c(C)c1 (stereo not shown) [Compound 4]
[3]
  MIC: > 128 µg/mL
[4]; A. baumannii BM4652
  concentration of compound 4 required to completely potentiate teicoplanin: 32 µg/mL
[4]; A. baumannii BM4652 with LpxA overexpressor clone
  concentration of compound 4 required to completely potentiate teicoplanin: > 128 µg/mL
[5]; A. baumannii BM4652 (efflux-)
  MIC: > 128 µg/mL
[5]; A. baumannii BM4652/pRK415 (efflux-)
  MIC: > 128 µg/mL
[5]; A. baumannii BM4652/pRK415-LpxA (efflux-)
  MIC: > 128 µg/mL
[5]; read-out: MGIC (minimum growth inhibition concentration), A. baumannii BM4652 (efflux-)
  MIC: 8 µg/mL (≈ 15.4 µM)
[5]; read-out: MGIC (minimum growth inhibition concentration), A. baumannii BM4652/pRK415 (efflux-)
  MIC: 8 µg/mL (≈ 15.4 µM)
[5]; read-out: MGIC (minimum growth inhibition concentration), A. baumannii BM4652/pRK415-LpxA (efflux-)
  MIC: > 128 µg/mL
[6]
  MIC: > 128 µg/mL
[7]
  MIC: > 128 µg/mL
[8]; A. baumannii BM652 efflux strain
  MIC: > 64 µg/mL
[8]; A. baumannii BM4652 ΔadeABC ΔadeIJK efflux mutant
  MIC: > 128 µg/mL
[9]
  MIC: > 128 µg/mL
[10]
  MIC: > 128 µg/mL

## CC[C@H]1OC(=O)[C@H](C)[C@@H](O[C@H]2C[C@@](C)(OC)[C@@H](O)[C@H](C)O2)[C@H](C)[C@@H](O[C@@H]2O[C@H](C)C[C@H](N(C)C)[C@H]2O)[C@](C)(O)C[C@@H](C)CN(C)[C@H](C)[C@@H](O)[C@]1(C)O [Azithromycin]
[2]; E. coli TOP10 ∆TolC + pHN678’
  MIC: 0.0156 µg/mL
[2]; [14]
  MIC: 0.0039 µg/mL
[2]; lolA antisense plasmid compared to vector alone
  Fold MIC decrease: 4 fold
[11]; A. baumannii BM4652 efflux mutant + pRK415-UppS
  MIC: 0.031 µg/mL
[11]; A. baumannii BM4652 efflux mutant + pRK415
  MIC: 0.031 µg/mL
[11]; A. baumannii BM4652 efflux mutant, N/A (no plasmid)
  MIC: 0.031 µg/mL
[11]
  Fold MIC increase: 1 fold
[11]; listed as azithromycin
  Fold MIC increase: unchanged

## Cc1ccc(S(=O)(=O)NCCN(CCC(N)=O)C(=O)c2cc(O)cc(NC(=O)CN3C(=O)C(C)Oc4ccccc43)c2)cc1 (stereo not shown) [Compound 7]
[1]
  IC50: 492 ± 4 nM
M. tuberculosis H37Rv
  MIC: 80 µM (≈ 49.9 µg/mL)

## CNC(=O)c1cccc(CNCc2cc(C(=O)N3CCN(c4cc(Cl)cc(Cl)c4)CC3)cc(C(C)(C)C)c2)c1 [Compound 2]
[12]
  IC50: 750 ± 210 nM
[13]
  MIC: 4 µg/mL (≈ 7.05 µM)
